Laboratory results as given in US5407823A, “Polypeptides having a dopaminergic receptor activity, nucleic acids coding for these polypeptides and use of these polypeptides for the screening of substances active on these polypeptides” (priority 1990, dated 1995).
Read-outs that look alike come from different tables or passages of the source.

How the values were obtained:
D-2 receptor = test: 7 OHDPAT-3H specific binding to membranes of CHO cells expressing the D-2 receptor; parameters: species or system rat; conditions: increasing concentrations of radioligand
[1] = target: T1, D-2 receptor expressed in CHO cells (Rattus norvegicus, UniProt P61169); test: Inhibition of 125I-iodosulpride binding to membranes of transfected CHO cells (D-2); conditions: for Kd: saturation kinetics at equilibrium, permanently transfected CHO cells
T1 construct: expressed in transfected cells
T1 sequence (P61169 whole entry): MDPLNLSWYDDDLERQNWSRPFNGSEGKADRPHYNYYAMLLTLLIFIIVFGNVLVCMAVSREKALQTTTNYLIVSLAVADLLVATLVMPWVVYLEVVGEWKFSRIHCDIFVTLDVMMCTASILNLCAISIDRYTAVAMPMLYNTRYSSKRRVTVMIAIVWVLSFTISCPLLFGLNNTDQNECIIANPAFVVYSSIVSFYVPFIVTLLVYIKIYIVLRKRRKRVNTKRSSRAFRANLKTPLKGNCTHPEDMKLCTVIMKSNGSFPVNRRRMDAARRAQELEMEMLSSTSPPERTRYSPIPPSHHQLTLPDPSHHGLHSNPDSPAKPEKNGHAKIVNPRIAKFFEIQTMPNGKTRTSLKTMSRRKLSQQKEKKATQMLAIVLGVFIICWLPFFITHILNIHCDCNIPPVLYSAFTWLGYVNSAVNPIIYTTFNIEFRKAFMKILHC
From the text: (§1) As far as the measurement of the affinity of the agonists or antagonists towards the polypeptides of the invention is concerned, it may be made under the following conditions:
(§2) The terms agonists and antagonists refer to the actions of the medicines on the D-2 receptors.
(§3) The β2 adrenergic receptor is excised from pSV β2 -MDH by digestions with HindIII and EcoRI and replaced by a SmaI-EcoRI restriction fragment of the clone of the D-2A receptor by using a blunt-ended HindIII nucleotide adaptor leading to the plasmid pSV D-2. The vector needed to express the D-3 receptor is obtained by replacing the HindIII-BglII restriction fragment of pSV D-2 by a EcoRI-BglII restriction fragment of the clone RT-PCR B, by using a HindIII-EcoRI oligonucleotide adaptor leading to the plasmid pSV D-3. […] The stable transfectants are selected in a culture medium (Dulbecco's Modified Eagle medium) not containing hypoxanthine and thymidine.

[2] = target: T2, D-3 receptor expressed in CHO cells (Rattus norvegicus, UniProt P19020); test: Inhibition of 125I-iodosulpride binding to membranes of transfected CHO cells (D-3); conditions: for Ratio Ki D-2/Ki D-3: D-2 and D-3 receptors expressed in CHO cells
T2 construct: expressed in transfected cells
T2 sequence (P19020 whole entry): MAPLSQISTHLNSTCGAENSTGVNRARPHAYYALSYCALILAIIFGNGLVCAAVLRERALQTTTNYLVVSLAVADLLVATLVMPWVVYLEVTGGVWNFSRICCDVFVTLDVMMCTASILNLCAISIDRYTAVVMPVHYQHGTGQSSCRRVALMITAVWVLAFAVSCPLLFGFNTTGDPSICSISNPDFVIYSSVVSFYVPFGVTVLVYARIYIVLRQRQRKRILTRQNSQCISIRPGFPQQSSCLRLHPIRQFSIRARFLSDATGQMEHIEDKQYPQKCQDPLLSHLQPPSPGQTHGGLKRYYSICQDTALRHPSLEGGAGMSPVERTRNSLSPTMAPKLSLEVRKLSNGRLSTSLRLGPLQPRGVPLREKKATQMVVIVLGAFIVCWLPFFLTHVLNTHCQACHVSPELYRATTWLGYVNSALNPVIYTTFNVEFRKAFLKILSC
From the text: as §1, §2, §3

[3] = competition with 125I-iodosulpride, CHO cell membranes, mean ± standard deviation, 2-3 experiments, read-out: Ki Value D-3 receptor
[4] = competition with 125I-iodosulpride, CHO cell membranes, mean ± standard deviation, 2-3 experiments, read-out: Ki Value D-2 receptor

Compound: CCCN(CCC)C1CCc2ccc(O)cc2C1 (stereo not drawn) [7 OHDPAT-^3 H, 7-hydroxy N,N'-dipropylaminotetraline radiolabelled with tritium]
- Binding to membranes of cells expressing the D-2 receptor (D-2 receptor): only very slightly

Compound: CCCN[C@@H]1CCc2c(OC)cccc2[C@@H]1C [(+)AJ 76]
- Ki [1]: 270 ± 14 nM
- Comparison of affinities for D-2 and D-3 receptors (in words) [2]: somewhat but significantly higher affinities for the D-3 receptor than the D-2 receptor
- Ratio Ki D-2/Ki D-3 [2]: 3.0
- Ki [2, 3]: 91 ± 5 nM

Compound: CCCN(CCC)[C@@H]1CCc2c(OC)cccc2[C@@H]1C [(+)UH 232]
- Ki [1]: 40 ± 1 nM
- Comparison of affinities for D-2 and D-3 receptors (in words) [2]: somewhat but significantly higher affinities for the D-3 receptor than the D-2 receptor
- Ki [2]: 9.2 ± 0.1 nM
- Ratio Ki D-2/Ki D-3 [2]: 4.4

Compound: CN1CCc2cccc3c2[C@H]1Cc1ccc(O)c(O)c1-3 [Apomorphine]
- Ki ([2]; read-out: Ki Value D-3 receptor): 20 ± 3 nM

Compound: CC(C)C[C@H]1C(=O)N2CCC[C@H]2[C@]2(O)O[C@](NC(=O)[C@@H]3C=C4c5cccc6[nH]c(Br)c(c56)C[C@H]4N(C)C3)(C(C)C)C(=O)N12 [Bromocriptine]
- Ki [1, 4]: 5.3 ± 0.6 nM
- Ratio Ki D-2/Ki D-3 [2]: 0.7
- Ki [2, 3]: 7.4 ± 1.3 nM

Compound: NCCc1ccc(O)c(O)c1 [Dopamine]
- Effect of Gpp(NH)p on displacement curve, D-2 receptor ([1]; presence of Gpp(NH)p): shifted to the right

Compound: CCCN1C[C@H](CSC)C[C@@H]2c3cccc4[nH]cc(c34)C[C@H]21 [Pergolide]
- Comparison of affinities for D-2 and D-3 receptors (in words) [2]: much less affinity for the D-3 receptor than for the D-2 receptor

Compound: CCN1CCC[C@H]1CNC(=O)c1c(O)c(Cl)cc(Cl)c1OC [Raclopride]
- Ki [2, 3]: 3.5 ± 0.3 nM

Compound: Oc1cc2c(cc1O)C(c1ccccc1)CNCC2 (stereo not drawn) [SKF 38393]
- Ki [2]: 5000 nM

Compound: CN(C)C1CCc2cc(O)c(O)cc2C1 (stereo not drawn) [TL 99]
- Comparison of affinities for D-2 and D-3 receptors (in words) [2]: much less affinity for the D-3 receptor than for the D-2 receptor

Compound: CN1CCN(CCCN2c3ccccc3Sc3ccc(S(=O)(=O)N(C)C)cc32)CC1 [Thioproperazine]
- Ki [1, 4]: 0.21 ± 0.01 nM
- Ki [2, 3]: 1.7 ± 0.1 nM

Compound: Iodosulpride
- Kd [1]: 0.61 ± 0.05 nM
- Kd ([1]; listed as 125 I-iodosulpride): 0.6 nM
- Ratio Ki D-2/Ki D-3 [2]: 0.52
- Kd ([2]; saturation kinetics at equilibrium, permanently transfected CHO cells): 1.2 ± 0.2 nM
